The text below walks through data of the NIST ThermoML archive (doi:10.1021/acs.jced.5b01048).

Data set [1] in a line: refractive index (Na D-line) (dimensionless). As to conditions: 293.15 K; 101.33 kPa; Liquid; Standard Abbe refractometry.
For data set [2] the following is noted: 293.15 K; 101.33 kPa; Liquid; Buoyancy - hydrostatic balance.

One may read the refractive index as the speed of light in vacuum divided by its phase velocity in the sample. A word on the mass density: it is mass per unit of volume.

± gives the expanded uncertainty stated by the source.

As to `C=CCO` [2-propenol], the refractive index in data set [1] worked out at 1.4119 ± 0.0005. Also, in data set [2], the mass density is given as 854 ± 1 kg/m3.
The corresponding values for `CCO` [ethanol] are 1.3616 ± 0.0005 and 790 ± 1 kg/m3.
Turning to `CO` [methanol], the refractive index in data set [1] is given as 1.3276 ± 0.0005. Also, the mass density in data set [2] was found to be 792.2 ± 1 kg/m3.
For `O` [water], in that order: 1.3328 ± 0.0005 and 998.4 ± 1 kg/m3.
